We go through seven molecules from patent publication US20240101528A1, “SUBSTITUTED PYRAZOLO PIPERIDINE CARBOXYLIC ACIDS” (BAYER AKTIENGESELLSCHAFT, priority 2020, published 2024).

The target of this experiment is T1, recombinant guanylate cyclase reporter cell line (Rattus norvegicus, UniProt P20595).
T1 construct: expressed in transfected cells
T1 sequence (P20595 1-619): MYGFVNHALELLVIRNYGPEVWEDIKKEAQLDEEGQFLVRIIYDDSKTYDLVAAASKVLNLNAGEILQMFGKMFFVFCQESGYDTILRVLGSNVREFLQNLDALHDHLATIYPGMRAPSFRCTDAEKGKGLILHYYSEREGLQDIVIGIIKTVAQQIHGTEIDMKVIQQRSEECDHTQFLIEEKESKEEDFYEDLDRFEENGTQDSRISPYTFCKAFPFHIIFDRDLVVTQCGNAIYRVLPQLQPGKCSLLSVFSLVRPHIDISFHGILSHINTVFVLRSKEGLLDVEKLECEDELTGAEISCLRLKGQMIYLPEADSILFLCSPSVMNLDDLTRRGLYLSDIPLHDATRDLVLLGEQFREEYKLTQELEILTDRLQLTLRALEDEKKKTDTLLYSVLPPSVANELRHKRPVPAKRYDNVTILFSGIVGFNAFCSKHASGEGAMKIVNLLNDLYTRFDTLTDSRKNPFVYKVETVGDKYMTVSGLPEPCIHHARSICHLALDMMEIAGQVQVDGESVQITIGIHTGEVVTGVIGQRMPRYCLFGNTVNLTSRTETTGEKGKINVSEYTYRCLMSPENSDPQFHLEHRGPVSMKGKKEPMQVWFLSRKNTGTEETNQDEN
T1 sequence (P19686 1-690 partner): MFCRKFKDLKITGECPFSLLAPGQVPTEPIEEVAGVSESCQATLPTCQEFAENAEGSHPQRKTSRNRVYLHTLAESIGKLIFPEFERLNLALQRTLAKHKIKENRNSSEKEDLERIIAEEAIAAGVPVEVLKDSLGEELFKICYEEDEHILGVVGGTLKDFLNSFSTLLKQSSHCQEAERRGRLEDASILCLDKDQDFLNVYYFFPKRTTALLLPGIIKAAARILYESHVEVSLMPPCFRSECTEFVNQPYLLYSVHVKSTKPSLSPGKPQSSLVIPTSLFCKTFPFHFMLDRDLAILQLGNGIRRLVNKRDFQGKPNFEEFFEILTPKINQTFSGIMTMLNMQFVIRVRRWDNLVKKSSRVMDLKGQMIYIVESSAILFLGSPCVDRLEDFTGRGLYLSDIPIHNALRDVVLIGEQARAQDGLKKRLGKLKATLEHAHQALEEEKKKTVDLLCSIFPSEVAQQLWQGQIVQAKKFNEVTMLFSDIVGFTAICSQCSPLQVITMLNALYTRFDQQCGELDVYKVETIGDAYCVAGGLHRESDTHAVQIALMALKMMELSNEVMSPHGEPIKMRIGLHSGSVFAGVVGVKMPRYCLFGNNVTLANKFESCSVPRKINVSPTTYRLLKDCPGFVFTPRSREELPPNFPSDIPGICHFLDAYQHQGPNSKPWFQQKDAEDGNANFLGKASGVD
Put plainly: Effect on a recombinant guanylate cyclase reporter cell line. It is filed as cell-based. The settings on record: for EC50: half maximal effective concentration; for MEC: minimum effective concentration. As for the experimental part: B-1. Effect on a Recombinant Guanylate Cyclase Reporter Cell Line
The cellular activity of the compounds according to the invention was determined using a recombinant guanylate cyclase reporter cell line, as described in F. Wunder et al., Anal. Biochem. 339, 104-112 (2005).

Structures can show the parent of a compound that is named as a salt.

In general, EC50 refers to the concentration that produces a half-maximal response. For `O=C(O)c1cnn(C2CCCN(c3cc(Cl)ccc3-c3ccc(N4CCN(CC5CC5(F)F)CC4)cc3)C2)c1C(F)F` (mixture of isomers) [Example 27, 1-{1-[4-Chloro-4′-(4-{[2,2-difluorocyclopropyl]methyl}piperazin-1-yl)[biphenyl]-2-yl]piperidin-3-yl}-5-(difluoromethyl)-1H-pyrazole-4-carboxylic acid hydrochloride (Diastereomeric mixture 2)], the EC50 turned out to be 2.8 nM and the MEC turned out to be 0.3 nM.
Regarding `O=C(O)c1cnn(C2CCCN(c3cc(Cl)ccc3-c3ccc(N4CCN(CC5CC5F)CC4)cc3)C2)c1C(F)F` (mixture of isomers) [Example 32, 1-[1-[5-chloro-2-[4-[4-[(trans-2-fluorocyclopropyl)methyl]piperazin-1-yl]phenyl]phenyl]-3-piperidyl]-5-(difluoromethyl)pyrazole-4-carboxylic acid hydrochloride (Diastereoisomeric mixture 2)], the concentration giving a half-maximal response (EC50) stood at 2.7 nM and the MEC turned out to be 0.3 nM.
With `O=C(O)c1cnn(C2CCCN(c3cc(Cl)ccc3-c3ccc(N4CCN(CC5CC5C(F)(F)F)CC4)cc3)C2)c1C(F)F` (mixture of isomers) [Example 38, 1-{1-[4-Chloro-4′-(4-{[cis-2-(trifluoromethyl)cyclopropyl]methyl}piperazin-1-yl) [biphenyl]-2-yl]piperidin-3-yl}-5-(difluoromethyl)-1H-pyrazole-4-carboxylic acid hydrochloride (Diastereoisomeric Mixture 1)], the EC50 was found to be 7.1 nM and the MEC turned out to be 1.0 nM.
The corresponding values for `O=C(O)c1cnn(C2CCCN(c3cc(Cl)ccc3-c3ccc(N4CCN(CC5CC5C(F)(F)F)CC4)cc3)C2)c1C(F)F` (mixture of isomers) [Example 39, 1-{1-[4-Chloro-4′-(4-{[cis-2-(trifluoromethyl)cyclopropyl]methyl}piperazin-1-yl) [biphenyl]-2-yl]piperidin-3-yl}-5-(difluoromethyl)-1H-pyrazole-4-carboxylic acid hydrochloride (Diastereomeric Mixture 2)] are 14.5 nM and 1.0 nM.
For `O=C(O)c1cnn(C2CCCN(c3cc(Cl)ccc3-c3ccc(N4CCN(CC5CC56CC6)CC4)cc3)C2)c1C(F)F` (mixture of isomers) [Example 41, 1-[1-[5-Chloro-2-[4-[4-(spiro[2.2]pentan-2-ylmethyl)piperazin-1-yl]phenyl]phenyl]-3-piperidyl]-5-(difluoromethyl)pyrazole-4-carboxylic acid hydrochloride (Diastereomeric mixture 2)], the concentration for a half-maximal effect (EC50) stood at 8.3 nM and the MEC came out at 1.0 nM.
The corresponding values for `O=C(O)c1cnn(C2CCCN(c3cc(Cl)ccc3-c3ccc(N4CCN(CC5CC5(F)F)CC4)cc3)C2)c1C(F)F` (single isomer, unassigned; diastereomer 1) [Example 28, 1-{1-[4-Chloro-4′-(4-{[2,2-difluorocyclopropyl]methyl}piperazin-1-yl)[biphenyl]-2-yl]piperidin-3-yl}-5-(difluoromethyl)-1H-pyrazole-4-carboxylic acid hydrochloride (Diastereomer 1)] are 0.8 nM and 0.3 nM.
On to `O=C(O)c1cnn(C2CCCN(c3cc(Cl)ccc3-c3ccc(N4CCN(CC5CC5(F)F)CC4)cc3)C2)c1C(F)F` (single isomer, unassigned; diastereomer 2) [Example 29, 1-{1-[4-Chloro-4′-(4-{[2,2-difluorocyclopropyl]methyl}piperazin-1-yl)[biphenyl]-2-yl]piperidin-3-yl}-5-(difluoromethyl)-1H-pyrazole-4-carboxylic acid hydrochloride (Diastereomer 2)], for which the EC50 was 2 nM and the MEC was 0.3 nM.
